IC50 data for 55 compounds are collected here from US7514582B2, “2′-substituted 1,1′-biphenyl-2-carboxamides, processes for their preparation, their use as medicaments, and pharmaceutical preparations comprising them” (Sanofi-Aventis Deutschland GmbH, priority 1999, dated 2009).

Molecules are shown by their SMILES.

One may read the IC50 as the midpoint of a concentration-inhibition curve. Low readings indicate higher potency, high ones lower potency.

T1 sequence (P22460 whole entry): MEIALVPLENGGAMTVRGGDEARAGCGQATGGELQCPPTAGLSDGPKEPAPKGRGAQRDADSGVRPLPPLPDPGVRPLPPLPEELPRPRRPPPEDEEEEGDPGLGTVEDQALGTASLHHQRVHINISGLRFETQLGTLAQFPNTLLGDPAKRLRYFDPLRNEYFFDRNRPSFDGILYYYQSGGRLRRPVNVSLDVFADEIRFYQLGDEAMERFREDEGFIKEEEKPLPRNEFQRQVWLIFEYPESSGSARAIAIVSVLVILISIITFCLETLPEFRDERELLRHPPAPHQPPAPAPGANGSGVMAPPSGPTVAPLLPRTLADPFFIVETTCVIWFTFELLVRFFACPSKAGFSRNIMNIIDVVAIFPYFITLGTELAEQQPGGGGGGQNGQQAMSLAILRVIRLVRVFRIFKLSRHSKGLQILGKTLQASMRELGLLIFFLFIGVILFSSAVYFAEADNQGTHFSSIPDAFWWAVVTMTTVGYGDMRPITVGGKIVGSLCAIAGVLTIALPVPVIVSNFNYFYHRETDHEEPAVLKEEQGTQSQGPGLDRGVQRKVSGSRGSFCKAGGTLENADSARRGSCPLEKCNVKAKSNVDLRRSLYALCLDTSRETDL

This test addresses T1, Kv1.5 channels from humans (Homo sapiens, UniProt P22460).
T1 construct: expressed in transfected cells; host or cells: Xenopus laevis oocytes injected with in vitro synthesized RNA
Kind of test: Kv1.5 currents in Xenopus oocytes, two-microelectrode voltage clamp. The class given is cell-based. On the procedure:
Kv1.5 channels from humans were expressed in Xenopus oocytes. For this, oocytes from Xenopus laevis were first isolated and defolliculated. RNA encoding Kv1.5 synthesized in vitro was then injected into these oocytes. After Kv1.5 protein expression for 1-7days, Kv1.5 currents were measured on the oocytes using the two-microelectrode voltage clamp technique. The Kv1.5 channels were in this case as a rule activated using voltage jumps to 0 mV and 40 mV lasting 500 ms. The bath was rinsed with a solution of the following composition: NaCl 96 mM, KCl 2 mM, CaCl2 1.8 mM, MgCl2 1 mM, HEPES 5 mM (titrated with NaOH to pH 7.4). These experiments were carried out at room temperature. The following were employed for data acquisition and analysis: Genedamp amplifier (Axon Instruments, Foster City, USA) and MacLab D/A converter and software (AD Instruments, Castle Hill, Australia). The substances according to the invention were tested by adding them in different concentrations to the bath solution. The effects of the substances were calculated as the percentage inhibition of the Kv1.5 control current which was obtained when no substance was added to the solution. The data were then extrapolated using the Hill equation in order to determine the inhibitory concentration IC50 for the respective substances.
The compound `C[C@H](OC(=O)NCc1ccccc1-c1ccccc1C(=O)NCCc1ccccn1)c1ccc(C(F)(F)F)cc1` [1 g] gave an IC50 of 400 nM.

For the compound `COC(=O)C(Cc1ccccn1)NC(=O)c1ccccc1-c1ccccc1CNC(=O)OCc1ccccc1` (stereo not shown) [8 z], the IC50 was 1600 nM.

Compound `COc1ccc(CC(=O)NCc2ccccc2-c2ccccc2C(=O)NC2CCCC2)cc1` [18 z] returned a concentration for half-maximal inhibition (IC50) of 1200 nM. The same measure for `CC(C)CCNC(=O)c1ccccc1-c1ccccc1[C@@H](C)NC(=O)OCc1ccccc1` [17 c]: 2100 nM.

As for `CC(C)(C)OC(=O)NCc1ccccc1-c1ccccc1C(=O)NCCc1ccccn1` [8 o], half-maximal inhibition (IC50) required 8400 nM. Against the preceding compound, the IC50 is about 4-fold higher.

On to `CC(C)C[C@H](NC(=O)c1ccccc1-c1ccccc1CNC(=O)OCc1ccccc1)C(=O)Nc1ccccc1` [13 b], for which the IC50 was ~3000 nM. To `CC(C)CCNC(=O)c1ccccc1-c1ccccc1[C@H](C)NC(=O)OCc1ccccc1` [17 d] belongs 1300 nM.

As to `O=C(Cc1ccc(F)cc1)NCc1ccccc1-c1ccccc1C(=O)NCc1ccc(F)cc1F` [18 u], the IC50 amounted to 1100 nM. In the case of `O=C(NCc1ccccc1-c1ccccc1C(=O)NC1CCCCC1)OCc1ccccc1` [6 b], the IC50 is 1800 nM. The compound `CC(C)CCNC(=O)c1ccccc1-c1ccccc1[C@H](C)NC(=O)O[C@@H](C)c1ccccc1` [17 e] showed an IC50 of 1800 nM. The compound `CC(OC(=O)NCc1ccccc1-c1ccccc1C(=O)NCCc1ccccn1)c1c(F)cccc1F` (stereo not shown) [1 n] had a half-maximal inhibitory concentration (IC50) of 1400 nM. To `O=C(NCCc1ccccc1)c1ccccc1-c1ccccc1CNS(=O)(=O)c1ccccc1` [3 d] belongs 1700 nM. As to `COCCNC(=O)c1ccccc1-c1ccccc1CNC(=O)Nc1ccc(Cl)cc1` [11 g], the IC50 worked out at 7800 nM. To `CC(C)CCNC(=O)c1ccccc1-c1ccccc1CNC(=O)OCc1ccccc1Cl` [2 e] belongs 3400 nM. The same measure for `C[C@H](NC(=O)NCc1ccccc1-c1ccccc1C(=O)NCCc1ccccn1)c1ccccc1` [5 d]: 1900 nM; for `CN(CCc1ccccn1)C(=O)c1ccccc1-c1ccccc1CNC(=O)OCc1ccccc1` [6 d]: 3100 nM. On to `O=C(NCc1ccccc1-c1ccccc1C(=O)NCc1ccc(F)cc1F)OCCCC(F)(F)F` [1 t], for which 1300 nM corresponded to half-maximal inhibition (IC50). Compared with the last compound, the IC50 is about 2.4-fold lower. The same measure for `O=C(Cc1ccc(O)cc1)NCc1ccccc1-c1ccccc1C(=O)NCc1ccc(F)cc1F` [18 w]: 5400 nM. To `O=C(CCc1ccc(F)cc1)NCc1ccccc1-c1ccccc1C(=O)NCc1ccc(F)cc1F` [14 b] belongs 2700 nM; to `O=C(NCc1ccccc1-c1ccccc1C(=O)NCCOc1ccccc1)Nc1ccc(F)cc1F` [11 p], 7300 nM; to `O=C(NCCc1ccccn1)c1ccccc1-c1ccccc1CNC(=S)Nc1ccccc1` [9 c], 2000 nM. On to `CN(C)c1ccc(CNC(=O)c2ccccc2-c2ccccc2CNC(=O)OCc2ccccc2)cc1` [8 x], for which half-maximal inhibition (IC50) required 3300 nM.

`O=C(NCc1ccccc1-c1ccccc1C(=O)NCc1cccnc1)OCCc1ccccc1` [18 q] yielded a concentration for half-maximal inhibition (IC50) of 3200 nM.

`O=C(NCc1ccccc1-c1ccccc1C(=O)NCc1ccccn1)Nc1ccc(F)cc1F` [11 n] returned an IC50 of 5900 nM. `CCCC(C)OC(=O)NCc1ccccc1-c1ccccc1C(=O)NCC1CC1` (stereo not shown) [18 m] showed a 50% inhibitory concentration (IC50) of 2100 nM. In turn, `COc1ccc(CC(=O)NCc2ccccc2-c2ccccc2C(=O)NCCc2ccncc2)cc1` [4 j] registered an IC50 of 7100 nM.

The compound `COc1ccc(C(=O)NCc2ccccc2-c2ccccc2C(=O)N[C@@H](CC(C)C)C(=O)NCC(F)(F)F)cc1` [13 f] came in with a half-maximal inhibitory concentration (IC50) of 3400 nM. The same measure for `C[C@@H](NC(=O)NCc1ccccc1-c1ccccc1C(=O)NCCc1ccccn1)c1ccccc1` [5 e]: 7200 nM; for `CN(Cc1ccccc1)C(=O)c1ccccc1-c1ccccc1CNC(=O)OCc1ccccc1` [6 a]: 4400 nM.

Regarding `CCOc1ccc(CCC(=O)NCc2ccccc2-c2ccccc2C(=O)NCCc2ccccn2)cc1` [4 k], the IC50 amounted to 2200 nM. The compound `O=C(Cc1ccc(F)cc1)NCc1ccccc1-c1ccccc1C(=O)Nc1ccc(F)cc1` [18 k] had an IC50 of 3000 nM.

`CC(C)(C)OC(=O)NCc1ccccc1-c1ccccc1C(=O)N[C@@H](CO)Cc1ccccc1` [8 m] gave a concentration for half-maximal inhibition (IC50) of 5200 nM. To `CC(C)C[C@H](NC(=O)c1ccccc1-c1ccccc1CNC(=O)OCc1ccccc1)C(=O)NCC(F)(F)F` [13 d] belongs 500 nM; to `COC(=O)c1ccc(OC(=O)NCc2ccccc2-c2ccccc2C(=O)NCCC(C)C)cc1` [2 h], 2500 nM. The same measure for `COC(=O)C(CC(C)C)NC(=O)c1ccccc1-c1ccccc1CNC(=O)OCc1ccccc1` (stereo not shown) [8 r]: 1000 nM. The compound `CC(C)CCC(=O)NCc1ccccc1-c1ccccc1C(=O)NCC1CC1` [18 a] returned a concentration for half-maximal inhibition (IC50) of 7200 nM. The same measure for `O=C(CCc1ccc(O)cc1)NCc1ccccc1-c1ccccc1C(=O)NCc1ccc(F)cc1F` [14 d]: 2000 nM; for `CC(C)C(NC(=O)c1ccccc1-c1ccccc1CNC(=O)OCc1ccccc1)C(N)=O` (stereo not shown) [8 p]: 1400 nM; for `C[C@H](CC(=O)NCc1ccccc1-c1ccccc1C(=O)NCc1ccncc1)c1ccccc1` [18 f]: 1300 nM. With `COCCCNC(=O)c1ccccc1-c1ccccc1CNC(=O)OCc1ccccc1` [18 aa], the midpoint of inhibition, the IC50, lay at 400 nM. Compound `CC(C)C[C@H](NC(=O)c1ccccc1-c1ccccc1CNC(=O)OCc1ccccc1)C(=O)NCc1ccccc1` [13 c] gave an IC50 of 1400 nM. The same measure for `O=C(NCc1ccccc1-c1ccccc1C(=O)NCCc1ccccn1)OCc1ccc(F)cc1` [1 e]: 500 nM. The same measure for `C[C@H](CC(=O)NCc1ccccc1-c1ccccc1C(=O)NCCc1ccncc1)c1ccccc1` [18 h]: 800 nM; for `Cc1cccc(CNC(=O)c2ccccc2-c2ccccc2CNC(=O)C[C@@H](C)c2ccc([N+](=O)[O-])cc2)n1` [18 j]: 700 nM. To `O=C(NCc1ccccc1-c1ccccc1C(=O)NCCc1ccccn1)OCc1ccc(C(F)(F)F)cc1` [1 d] belongs 1000 nM.

On to `CC(C)CCNC(=O)c1ccccc1-c1ccccc1CNC(=O)C[C@@H](C)c1ccccc1` [18 d], for which the 50% inhibitory concentration (IC50) came out at 400 nM. This IC50 lies about 2.5-fold lower than the previous one. For `O=C(CCc1ccc(F)c(F)c1)NCc1ccccc1-c1ccccc1C(=O)NCc1ccc(F)cc1F` [14 f], the half-maximal inhibitory concentration (IC50) stood at 2500 nM. Compound `O=C(NCc1ccccc1-c1ccccc1C(=O)NCCc1cccnc1)OCc1ccccc1` [8 aa] gave a half-inhibitory concentration (IC50) of 800 nM. To `CCN(Cc1ccncc1)C(=O)c1ccccc1-c1ccccc1CNC(=O)OCc1ccccc1` [8 q] belongs 7300 nM; to `CC(C)(C)OC(=O)NCc1ccccc1-c1ccccc1C(=O)Nc1ccc(F)cc1` [8 k], 3100 nM; to `CCC[C@H](OC(=O)NCc1ccccc1-c1ccccc1C(=O)NCCc1ccccn1)c1ccccc1` [1 r], 800 nM.

Turning to `CC(C)CCNC(=O)c1cc(O)ccc1-c1ccccc1CNC(=O)OCc1ccccc1` [16 b], the IC50 was 5200 nM.

As to `O=C(NCc1ccccc1-c1ccccc1C(=O)NCc1ccc(F)cc1F)Oc1ccc(F)cc1` [2 j], the IC50 worked out at 2500 nM. Turning to `O=C(NCc1ccccc1-c1ccccc1C(=O)NCCc1ccccc1)OCc1ccc(C(F)(F)F)cc1` [1 a], the IC50 turned out to be 6100 nM.

In turn, `COc1ccc(-c2ccccc2CNC(=O)OC(C)(C)C)c(C(=O)NCCC(C)C)c1` [15 b] showed an IC50 of 3100 nM. Against the preceding compound, the IC50 is about 2-fold lower.
